Experimental data reported in paper PMC9780942, “Antimicrobial Activity and Immunomodulatory Properties of Acidocin A, the Pediocin-like Bacteriocin with the Non-Canonical Structure” (Membranes, 2022).
Positions of bridges follow the written chain, without caps; N, C: chain ends. No end group written: not given here.

Assays:
L. monocytogenes EGD = type: cell-based, Listeria monocytogenes; details: 24 h
Experimental: (§1) Antibacterial activity of recombinant bacteriocins against a number of Gram-positive and Gram-negative bacteria (Table S2) was determined by the method of two-fold serial dilutions in a liquid medium. Two-fold serial dilutions of bacteriocins were prepared in sterile 96-well flat-bottom polystyrene microplates (Eppendorf, Hamburg, Germany) (Cat. No. 0030730.011) in a volume of 50 µL of sterile 0.1% bovine serum albumin (BSA) (SERVA Electrophoresis GmbH, Heidelberg, Germany) to prevent non-specific sorption of peptides to the surface of the plate wells [23]. Mid-log phase bacterial cultures were diluted with the 2x Mueller-Hinton broth (MHB) (Sigma-Aldrich, St. Louis, MO, USA) to a final cell concentration of 10^6 colony forming units (CFU) per mL. To determine the activity of bacteriocins against Listeria and Enterococci, 3% tryptic soy broth (TSB) (Merck-Millipore, Burlington, MA, USA) was used instead of MHB. Aliquots of 50 μL of diluted bacterial suspensions were added to each well of the plate, which was then incubated at 37 °C and 950 rpm for 24 h using thermostatable plate shaker PST-60HL-4 (Biosan, Riga, Latvia). As a negative control, 50 µL of the sterile growth medium (2xMHB or 6% TSB) was added to the wells containing 50 µL of 0.1% BSA. The values of the minimum inhibitory concentrations (MIC) were determined as the minimum concentration of the peptide, at which there was no visible growth of bacterial culture. Incubation for 2 h with 20 µg/mL chromogenic substrate resazurin (Sigma-Aldrich, St. Louis, MO, USA) was used to detect viable bacterial cells if they were difficult to visually detect. To study the effect of inorganic salts on the antimicrobial activity of bacteriocins, antibacterial activity assay was carried out in MHB medium supplemented with 0.9% NaCl.

A. baumannii XDR CI 2675 = type: cell-based; details: XDR CI 2675, 24 h
Experimental: as §1

B. licheniformis B-511 = type: cell-based; details: 24 h
Experimental: as §1

B. subtilis B-886 = type: cell-based; details: B-886, 24 h
Experimental: as §1

E. coli ATCC 25922 = type: cell-based; details: ATCC 25922, 24 h
Experimental: as §1

E. coli ML-35p = type: cell-based; details: 24 h
Experimental: as §1

E. coli SQ110 = type: cell-based; details: SQ110, 24 h
Experimental: as §1

E. coli XDR CI 1057 = type: cell-based; details: XDR CI 1057, 24 h
Experimental: as §1

L. lactis MK66 = type: cell-based; details: MK66, 24 h
Experimental: as §1

M. luteus Ac-2229 = type: cell-based; details: Ac-2229, 24 h
Experimental: as §1

M. phlei Ac-1221 = type: cell-based; details: 24 h
Experimental: as §1

[1] = system: P. aeruginosa MDR CI 1995; type: cell-based; details: MDR CI 1995, 24 h
Experimental: as §1

S. aureus 209P = type: cell-based; details: 24 h
Experimental: as §1

[2] = Circular dichroism spectroscopy, secondary structure estimation; type: physicochemical; details: calculated from previously published CD spectra

## TYYGNGVSCNKKGCSVDWGKAISIIGNNSAANLATGGAAGWKS (disulfide 9-14) [Avicin A]
L. monocytogenes EGD
  Minimum Inhibitory Concentration: <0.125 µM
A. baumannii XDR CI 2675
  Minimum Inhibitory Concentration: >32 µM
B. licheniformis B-511
  Minimum Inhibitory Concentration: >32 µM
B. subtilis B-886
  Minimum Inhibitory Concentration: >32 µM
E. coli ATCC 25922
  Minimum Inhibitory Concentration: >32 µM
E. coli ML-35p
  Minimum Inhibitory Concentration: >32 µM
E. coli SQ110
  Minimum Inhibitory Concentration: >32 µM
E. coli XDR CI 1057
  Minimum Inhibitory Concentration: >32 µM
L. lactis MK66
  Minimum Inhibitory Concentration: >32 µM
M. luteus Ac-2229
  Minimum Inhibitory Concentration: >32 µM
M. phlei Ac-1221
  Minimum Inhibitory Concentration: >32 µM
[1]
  Minimum Inhibitory Concentration: >32 µM
S. aureus 209P
  Minimum Inhibitory Concentration: >32 µM
[2]; Aqueous solution
  Random: 39.3%
  α-Helix: 5.8%
  β-Sheet: 32.8%
  β-Turn: 22.1%
[2]; DPC micelles
  Random: 27.8%
  α-Helix: 19.4%
  β-Sheet: 28.6%
  β-Turn: 21.6%
[2]; SDS micelles
  Random: 30.4%
  α-Helix: 19.7%
  β-Sheet: 29.3%
  β-Turn: 23.1%
